# Source: ChEMBL document CHEMBL3882729, “Receptor-type kinase modulators and methods of use” (2009)
# How the values were obtained:
# Ephrin type-A receptor 2 = Ephrin type-A receptor 2 (Homo sapiens, UniProt P29317); test: Inhibition of recombinant human N-terminal His6-tagged EphA2 (N598 to R890 residues) expressed in baculovirus using poly-EY as substrate after 180 mins by luciferase coupled chemiluminescence assay
# Ephrin type-B receptor 4 = molecular target: T1, Ephrin type-B receptor 4 (Homo sapiens, UniProt P54760); test: Inhibition of recombinant human N-terminal His6-tagged EphB4 kinase domain (E605 to E890 residues) expressed in baculovirus using poly-AEKY as substrate after 150 mins in presence of gamma33P-ATP by liquid scintillation spectrometry
# T1 sequence (P54760 whole entry): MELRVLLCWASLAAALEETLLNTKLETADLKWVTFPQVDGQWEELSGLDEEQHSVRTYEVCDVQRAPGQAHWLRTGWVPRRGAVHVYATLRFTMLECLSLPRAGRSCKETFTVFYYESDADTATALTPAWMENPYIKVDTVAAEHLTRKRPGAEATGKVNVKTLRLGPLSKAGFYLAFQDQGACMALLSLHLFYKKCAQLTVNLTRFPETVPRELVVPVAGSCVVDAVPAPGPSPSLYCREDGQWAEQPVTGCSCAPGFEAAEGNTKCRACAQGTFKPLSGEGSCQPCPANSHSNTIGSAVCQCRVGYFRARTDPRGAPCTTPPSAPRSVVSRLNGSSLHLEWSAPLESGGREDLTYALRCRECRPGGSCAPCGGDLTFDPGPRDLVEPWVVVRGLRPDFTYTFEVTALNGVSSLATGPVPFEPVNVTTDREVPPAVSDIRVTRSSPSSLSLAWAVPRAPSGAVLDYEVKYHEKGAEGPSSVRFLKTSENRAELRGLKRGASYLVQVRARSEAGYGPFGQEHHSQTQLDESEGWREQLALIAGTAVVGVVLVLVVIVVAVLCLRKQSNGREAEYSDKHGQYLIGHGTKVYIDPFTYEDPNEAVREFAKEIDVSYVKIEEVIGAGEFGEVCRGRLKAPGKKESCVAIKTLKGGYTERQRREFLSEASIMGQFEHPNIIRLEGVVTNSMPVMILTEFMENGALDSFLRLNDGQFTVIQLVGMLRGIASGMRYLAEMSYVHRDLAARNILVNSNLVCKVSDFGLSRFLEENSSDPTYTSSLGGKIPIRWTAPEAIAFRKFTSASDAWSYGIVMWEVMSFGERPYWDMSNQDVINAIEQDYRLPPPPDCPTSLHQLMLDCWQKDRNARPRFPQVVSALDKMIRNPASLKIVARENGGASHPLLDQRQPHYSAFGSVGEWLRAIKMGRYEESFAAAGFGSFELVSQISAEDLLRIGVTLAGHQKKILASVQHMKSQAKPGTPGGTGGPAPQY
# [1] = molecular target: Receptor tyrosine-protein kinase erbB-2 (Homo sapiens, UniProt P04626); test: Inhibition of recombinant human N-terminal GST His6-tagged thrombin cleavage site-fused ErbB2 kinase domain (Q679 to V1255 residues) expressed in baculovirus infected insect Sf9 cells using biotinylated poly-EY as substrate after 60 mins by alphascreen assay
# [2] = molecular target: Vascular endothelial growth factor receptor 2 (Homo sapiens, UniProt P35968); test: Inhibition of recombinant human N-terminal GST-fused KDR (D807 to V1356 residues) expressed in baculovirus infected […] insect Sf9 cells using poly-EY as substrate after 240 mins by luciferase coupled chemiluminescence assay
# Chain of Vascular endothelial growth factor receptor 2 (P35968 whole entry, the tested form may be a part): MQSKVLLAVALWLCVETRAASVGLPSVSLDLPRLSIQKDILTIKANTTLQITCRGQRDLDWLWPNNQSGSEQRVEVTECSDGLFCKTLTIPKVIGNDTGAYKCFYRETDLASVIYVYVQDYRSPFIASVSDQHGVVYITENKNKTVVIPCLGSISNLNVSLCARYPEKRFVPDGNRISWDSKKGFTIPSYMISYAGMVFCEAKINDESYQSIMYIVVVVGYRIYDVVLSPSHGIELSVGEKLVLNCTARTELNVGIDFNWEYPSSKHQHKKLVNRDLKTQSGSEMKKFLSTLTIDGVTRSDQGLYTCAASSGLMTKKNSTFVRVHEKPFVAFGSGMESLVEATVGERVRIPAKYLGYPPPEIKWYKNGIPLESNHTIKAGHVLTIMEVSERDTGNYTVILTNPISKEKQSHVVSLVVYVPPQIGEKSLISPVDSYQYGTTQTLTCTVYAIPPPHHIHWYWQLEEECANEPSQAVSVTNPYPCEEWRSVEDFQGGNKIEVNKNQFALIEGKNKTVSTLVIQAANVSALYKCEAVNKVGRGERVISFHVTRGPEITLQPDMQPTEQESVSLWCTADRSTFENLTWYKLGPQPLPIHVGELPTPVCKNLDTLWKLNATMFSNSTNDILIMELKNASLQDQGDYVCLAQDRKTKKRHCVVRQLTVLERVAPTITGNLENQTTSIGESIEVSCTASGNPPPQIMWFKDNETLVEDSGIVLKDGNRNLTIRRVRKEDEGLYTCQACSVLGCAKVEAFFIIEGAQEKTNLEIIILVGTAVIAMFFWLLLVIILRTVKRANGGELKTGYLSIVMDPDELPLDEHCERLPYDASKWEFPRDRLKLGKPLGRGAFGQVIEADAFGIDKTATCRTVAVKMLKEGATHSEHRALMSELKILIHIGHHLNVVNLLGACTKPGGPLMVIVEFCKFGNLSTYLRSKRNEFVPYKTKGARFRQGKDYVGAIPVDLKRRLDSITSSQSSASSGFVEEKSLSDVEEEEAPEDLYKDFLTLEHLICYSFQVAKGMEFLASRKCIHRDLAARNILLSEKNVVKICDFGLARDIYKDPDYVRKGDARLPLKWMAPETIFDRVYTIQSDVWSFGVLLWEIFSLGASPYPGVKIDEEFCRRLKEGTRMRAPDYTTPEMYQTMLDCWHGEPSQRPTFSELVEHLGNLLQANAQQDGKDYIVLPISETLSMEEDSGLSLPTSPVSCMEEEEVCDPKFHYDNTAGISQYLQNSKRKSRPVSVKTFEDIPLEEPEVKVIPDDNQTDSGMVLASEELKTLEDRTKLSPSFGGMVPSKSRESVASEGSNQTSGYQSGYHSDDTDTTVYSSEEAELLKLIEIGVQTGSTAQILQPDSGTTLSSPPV
# Chain of Ephrin type-A receptor 2 (P29317 whole entry, the tested form may be a part): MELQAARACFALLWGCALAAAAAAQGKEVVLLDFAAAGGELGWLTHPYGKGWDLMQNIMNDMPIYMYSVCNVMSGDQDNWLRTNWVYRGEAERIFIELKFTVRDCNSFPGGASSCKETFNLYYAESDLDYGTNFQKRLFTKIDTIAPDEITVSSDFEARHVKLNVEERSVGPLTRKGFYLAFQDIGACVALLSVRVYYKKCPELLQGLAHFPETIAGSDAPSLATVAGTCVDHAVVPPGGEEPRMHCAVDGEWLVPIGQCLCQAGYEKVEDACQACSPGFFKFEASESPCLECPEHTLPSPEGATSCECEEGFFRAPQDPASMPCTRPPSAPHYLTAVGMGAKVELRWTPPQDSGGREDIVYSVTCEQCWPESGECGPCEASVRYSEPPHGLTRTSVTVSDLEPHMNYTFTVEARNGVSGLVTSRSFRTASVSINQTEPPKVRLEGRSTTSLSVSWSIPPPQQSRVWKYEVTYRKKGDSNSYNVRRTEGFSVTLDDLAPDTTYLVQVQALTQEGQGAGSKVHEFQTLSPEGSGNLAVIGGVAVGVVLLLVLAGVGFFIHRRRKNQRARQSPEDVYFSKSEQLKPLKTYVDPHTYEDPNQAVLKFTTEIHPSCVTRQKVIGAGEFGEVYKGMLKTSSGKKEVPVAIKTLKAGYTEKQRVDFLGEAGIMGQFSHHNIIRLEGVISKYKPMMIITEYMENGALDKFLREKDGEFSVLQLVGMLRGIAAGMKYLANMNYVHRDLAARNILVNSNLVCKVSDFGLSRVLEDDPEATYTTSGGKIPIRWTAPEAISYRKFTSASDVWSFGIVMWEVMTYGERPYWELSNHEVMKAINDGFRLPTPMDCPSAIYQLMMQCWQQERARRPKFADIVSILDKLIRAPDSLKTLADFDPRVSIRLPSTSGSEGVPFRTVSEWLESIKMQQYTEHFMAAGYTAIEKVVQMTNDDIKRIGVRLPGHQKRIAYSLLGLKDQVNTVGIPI
# Chain of Receptor tyrosine-protein kinase erbB-2 (P04626 whole entry, the tested form may be a part): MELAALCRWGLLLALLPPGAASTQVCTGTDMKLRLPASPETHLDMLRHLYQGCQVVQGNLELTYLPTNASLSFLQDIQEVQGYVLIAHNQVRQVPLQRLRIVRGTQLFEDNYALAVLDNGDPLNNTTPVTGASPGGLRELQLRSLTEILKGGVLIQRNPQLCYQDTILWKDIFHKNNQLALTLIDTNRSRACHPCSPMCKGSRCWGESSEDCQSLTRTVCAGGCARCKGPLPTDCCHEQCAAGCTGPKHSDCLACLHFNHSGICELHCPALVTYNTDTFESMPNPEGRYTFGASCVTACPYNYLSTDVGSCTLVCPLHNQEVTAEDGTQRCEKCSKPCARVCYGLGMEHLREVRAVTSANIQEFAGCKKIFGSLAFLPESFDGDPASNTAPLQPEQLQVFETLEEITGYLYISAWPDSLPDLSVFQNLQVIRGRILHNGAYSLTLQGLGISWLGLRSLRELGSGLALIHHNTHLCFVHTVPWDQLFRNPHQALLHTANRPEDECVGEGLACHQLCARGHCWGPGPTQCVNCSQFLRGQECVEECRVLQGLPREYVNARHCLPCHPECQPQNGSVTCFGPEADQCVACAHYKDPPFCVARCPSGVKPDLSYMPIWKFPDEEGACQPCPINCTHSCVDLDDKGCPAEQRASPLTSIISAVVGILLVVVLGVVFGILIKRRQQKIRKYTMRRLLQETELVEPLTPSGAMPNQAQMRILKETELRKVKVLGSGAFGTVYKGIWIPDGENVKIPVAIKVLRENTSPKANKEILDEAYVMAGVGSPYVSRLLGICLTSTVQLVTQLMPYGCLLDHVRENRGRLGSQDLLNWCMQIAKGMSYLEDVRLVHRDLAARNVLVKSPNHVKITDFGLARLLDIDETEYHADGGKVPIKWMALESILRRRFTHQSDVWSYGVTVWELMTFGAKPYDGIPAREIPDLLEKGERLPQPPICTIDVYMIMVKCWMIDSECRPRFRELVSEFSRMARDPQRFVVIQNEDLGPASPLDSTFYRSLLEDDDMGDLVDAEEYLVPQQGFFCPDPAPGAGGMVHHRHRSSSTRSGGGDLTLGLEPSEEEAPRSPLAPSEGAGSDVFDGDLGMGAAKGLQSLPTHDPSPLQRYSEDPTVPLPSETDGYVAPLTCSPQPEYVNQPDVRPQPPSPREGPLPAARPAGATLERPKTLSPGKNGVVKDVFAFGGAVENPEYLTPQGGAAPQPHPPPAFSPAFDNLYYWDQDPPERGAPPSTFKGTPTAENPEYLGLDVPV
IC50 (Ephrin type-A receptor 2) [nM],IC50 (Ephrin type-B receptor 4) [nM],IC50 [1] [nM],IC50 [2] [nM],Compound
< 50,< 50,< 50,50 to 1000,COc1cc2c(Nc3ccc(Cl)c(Cl)c3)ncnc2cc1OCC1CN(S(C)(=O)=O)CCO1 (stereo unspecified)
50 to 1000,50 to 1000,,50 to 1000,COc1cc2c(Nc3ccc(Br)cc3C)ncnc2cc1OCC1CN(C)CCO1 (stereo unspecified)
1000 to 20000,50 to 1000,,50 to 1000,CCC(C(=O)N1CCOC(COc2cc3ncnc(Nc4ccc(Cl)c(Cl)c4)c3cc2OC)C1)c1ccccc1 (stereo unspecified)
< 50,< 50,,< 50,COc1cc2c(Nc3ccc(Cl)c(Cl)c3)ncnc2cc1OCC1CN(C(=O)CC(=O)O)CCO1 (stereo unspecified)
< 50,< 50,< 50,< 50,COc1cc2c(Nc3ccc(Cl)c(Cl)c3)ncnc2cc1OCC1CN(C(N)=NC#N)CCO1 (stereo unspecified)
50 to 1000,< 50,,50 to 1000,COc1cc2c(Nc3ccc(Cl)c(Br)c3)ncnc2cc1OCC1CN(C)CCO1 (stereo unspecified)
50 to 1000,50 to 1000,,50 to 1000,COC(=O)CCC(=O)N1CCOC(COc2cc3ncnc(Nc4ccc(Cl)c(Cl)c4)c3cc2OC)C1 (stereo unspecified)
1000 to 20000,50 to 1000,,50 to 1000,COc1cc2c(Nc3ccc(Cl)c(Cl)c3)ncnc2cc1OCC1CN(C(=O)c2cccc3ccccc23)CCO1 (stereo unspecified)
50 to 1000,< 50,50 to 1000,50 to 1000,COc1cc2c(Nc3cc(Cl)c(Cl)c(Cl)c3)ncnc2cc1OCC1CN(C)CCO1 (stereo unspecified)
50 to 1000,50 to 1000,,50 to 1000,COc1cc2c(Nc3ccc(Cl)c(C)c3)ncnc2cc1OCC1CN(C)CCO1 (stereo unspecified)
50 to 1000,50 to 1000,,50 to 1000,COc1cc2c(Nc3ccc(Cl)c(Cl)c3)ncnc2cc1OCC1CN(C(=O)C(C)(C)C)CCO1 (stereo unspecified)
50 to 1000,50 to 1000,,50 to 1000,COc1cc2c(Nc3ccc(Br)cc3Cl)ncnc2cc1OCC1CN(C)CCO1 (stereo unspecified)
50 to 1000,< 50,< 50,50 to 1000,COc1cc2c(Nc3cccc(Cl)c3F)ncnc2cc1OCC1CN(/C(N)=N/C#N)CCCO1 (stereo unspecified)
50 to 1000,< 50,,50 to 1000,COCCOc1cc2c(Nc3ccc(Cl)c(Cl)c3)ncnc2cc1OCC1CN(C)CCO1 (stereo unspecified)
,50 to 1000,50 to 1000,< 50,COc1cc2c(Nc3ccc(Cl)c(Cl)c3)ncnc2cc1OCC1CNCC(C)(C)O1 (stereo unspecified)
50 to 1000,< 50,50 to 1000,< 50,COc1cc2c(Nc3ccc(C)c(Br)c3)ncnc2cc1OCC1CN(C)CCO1 (stereo unspecified)
50 to 1000,< 50,< 50,50 to 1000,COc1cc2c(Nc3ccc(Cl)c(Cl)c3)ncnc2cc1OCC1CN(CC(N)=O)CCO1 (stereo unspecified)
,< 50,< 50,< 50,CCOc1cc2c(Nc3ccc(Cl)c(Cl)c3)ncnc2cc1OCC1CNCCO1 (stereo unspecified)
50 to 1000,50 to 1000,,50 to 1000,COc1cc2c(Nc3ccc(Cl)c(Cl)c3)ncnc2cc1OCC1CN(C(=O)CCc2ccccc2)CCO1 (stereo unspecified)
50 to 1000,< 50,50 to 1000,< 50,CCCCN1CCOC(COc2cc3ncnc(Nc4ccc(Cl)c(Cl)c4)c3cc2OC)C1 (stereo unspecified)
50 to 1000,< 50,< 50,50 to 1000,COc1cc2c(Nc3ccc(Cl)c(Cl)c3)ncnc2cc1OCC1CN(S(C)(=O)=O)CCCO1 (stereo unspecified)
,50 to 1000,50 to 1000,50 to 1000,COc1cc2c(Nc3ccc(Cl)c(Cl)c3)ncnc2cc1OCC1CN(C)CC(C)(C)O1 (stereo unspecified)

IC50 (Ephrin type-A receptor 2) [nM],IC50 (Ephrin type-B receptor 4) [nM],IC50 [1] [nM],IC50 [2] [nM],Compound
50 to 1000,50 to 1000,,50 to 1000,COc1cc2c(Nc3ccc(Cl)c(Cl)c3)ncnc2cc1OCC1CN(C(=O)c2c(F)ccc(F)c2F)CCO1 (stereo unspecified)
50 to 1000,50 to 1000,50 to 1000,50 to 1000,COc1cc2c(Nc3ccc(Cl)c(Cl)c3)ncnc2cc1OCc1csc(C2CCCN(C)C2)n1 (stereo unspecified)
50 to 1000,50 to 1000,,50 to 1000,CCC1(C)CN(C)CC(COc2cc3ncnc(Nc4ccc(Cl)c(Cl)c4)c3cc2OC)O1 (stereo unspecified)
50 to 1000,50 to 1000,,50 to 1000,CCCCCC(=O)N1CCOC(COc2cc3ncnc(Nc4ccc(Cl)c(Cl)c4)c3cc2OC)C1 (stereo unspecified)
50 to 1000,< 50,< 50,50 to 1000,COc1cc2c(Nc3ccc(Cl)c(Cl)c3)ncnc2cc1OCc1nc2c(s1)CN(C)CC2
1000 to 20000,50 to 1000,,50 to 1000,COc1cc2c(Nc3ccc(Cl)c(Cl)c3)ncnc2cc1OCC1CN(C(=O)Cc2ccc(Cl)cc2)CCO1 (stereo unspecified)
50 to 1000,50 to 1000,,50 to 1000,COc1cc2c(Nc3ccc(Cl)c(Cl)c3)ncnc2cc1OCC1CN(C(=O)CCC(C)C)CCO1 (stereo unspecified)
< 50,< 50,50 to 1000,< 50,COc1cc2c(Nc3ccc(Cl)c(Cl)c3Cl)ncnc2cc1OCC1CN(C)CCO1 (stereo unspecified)
50 to 1000,50 to 1000,,50 to 1000,CCCCC(CC)C(=O)N1CCOC(COc2cc3ncnc(Nc4ccc(Cl)c(Cl)c4)c3cc2OC)C1 (stereo unspecified)
50 to 1000,50 to 1000,,50 to 1000,CN1CCOC(COc2cc3ncnc(Nc4ccc(Cl)c(Cl)c4)c3cc2O)C1 (stereo unspecified)
50 to 1000,50 to 1000,50 to 1000,50 to 1000,COc1cc2c(Nc3ccc(Cl)c(Cl)c3)ncnc2cc1OCc1csc(N2CCN(C)CC2)n1
50 to 1000,50 to 1000,,50 to 1000,CCCC(CCC)C(=O)N1CCOC(COc2cc3ncnc(Nc4ccc(Cl)c(Cl)c4)c3cc2OC)C1 (stereo unspecified)
50 to 1000,< 50,< 50,50 to 1000,CCN1CCc2nc(COc3cc4ncnc(Nc5ccc(Cl)c(Cl)c5)c4cc3OC)sc2C1
< 50,< 50,< 50,50 to 1000,CCS(=O)(=O)N1CCOC(COc2cc3ncnc(Nc4ccc(Cl)c(Cl)c4)c3cc2OC)C1 (stereo unspecified)
50 to 1000,50 to 1000,,50 to 1000,COc1cc2c(Nc3ccc(Cl)c(Cl)c3)ncnc2cc1OCC1CN(C(=O)c2ccc3c(c2)OCO3)CCO1 (stereo unspecified)
50 to 1000,< 50,,50 to 1000,COc1cc2c(Nc3ccc(Cl)c(Cl)c3)ncnc2cc1OCC1CN(C(=O)c2ccc(Cl)nc2)CCO1 (stereo unspecified)
50 to 1000,< 50,,50 to 1000,COc1cc2c(Nc3ccc(Cl)c(Cl)c3)ncnc2cc1OCC1CN(C(=O)c2ccoc2)CCO1 (stereo unspecified)
50 to 1000,< 50,,< 50,COc1cc2c(Nc3ccc(Cl)c(Cl)c3)ncnc2cc1OCC1CN(/C(=N/C#N)N2CCN(C)CC2)CCO1 (stereo unspecified)
50 to 1000,< 50,,50 to 1000,COc1cc2c(Nc3cccc(Br)c3Cl)ncnc2cc1OCC1CN(C)CCO1 (stereo unspecified)
50 to 1000,50 to 1000,,50 to 1000,COc1cc2c(Nc3ccc(Cl)c(Cl)c3)ncnc2cc1OCC1CN(C(=O)c2cc(F)ccc2F)CCO1 (stereo unspecified)
1000 to 20000,1000 to 20000,,1000 to 20000,CCCCc1ccc(C(=O)N2CCOC(COc3cc4ncnc(Nc5ccc(Cl)c(Cl)c5)c4cc3OC)C2)cc1 (stereo unspecified)
50 to 1000,< 50,,50 to 1000,COCCNC(=NC#N)N1CCOC(COc2cc3ncnc(Nc4ccc(Cl)c(Cl)c4)c3cc2OC)C1 (stereo unspecified)
